Where “and” joins values, the source holds several entries; their conditions need not be identical. Equal values may be shown once.
What was measured:
[1] = Drug tolerability (body weight) in TC-71 Ewing sarcoma xenograft model; format: in vivo, Athymic nude mice; conditions: Irinotecan 50 mg/kg; for BWL %: negative = loss vs day 9
Protocol: (§1) Experiments were performed with female Athymic nude mice, 9-10 weeks old obtained from Harlan Laboratories (Udine, Italy). They were maintained under Specific Pathogen Free conditions with constant temperature and humidity, according to the institutional guidelines.
(§2) Tumour growth mice was monitored two/three times a week (depending on tumour growth rate, to avoid unnecessary stress to the animals) by Vernier caliper. Mice were sacrificed when tumour reached a mean weight of 2±0.5 gr. The antitumour activity will be expressed as T/C %, where T and C were the mean tumour weight of treated and control groups, respectively. Mice were monitored daily and weighted at least two times a week. Tolerability was evaluated on the basis of body weight loss (BWL) and clinical observation.

[2] = tested on: TC-71 Ewing sarcoma; experiment: Antitumour activity in TC-71 Ewing sarcoma xenograft model; format: in vivo, Athymic nude mice
Protocol: as §1, §2
Statistical analysis was performed with GraphPad Prism version 6.01 software (GraphPad software, Inc., La Jolla, CA, USA). ANOVA test was performed to evaluate if there were statistically significant differences between treated and control groups.
5×10^6 TC-71 cells were inoculated subcutaneously in the right flank of mice. The growing tumour masses were measured with the aid of a Vernier caliper, and the tumour weights (1 mm^3=1 mg) were calculated by the formula: length×(width) 2/2. When tumour load achieved about 100 mg, mice were randomized into the experimental groups and treatment started.

[3] = day 9 from tumour inoculum (treatment start)
[4] = 50 mg/kg i.v. q7dx3, day 9 from inoculum
[5] = 50 mg/kg i.v. q7dx3, day 11 from inoculum
[6] = 50 mg/kg i.v. q7dx3, day 14 from inoculum
[7] = 50 mg/kg i.v. q7dx3, day 16 from inoculum
[8] = 50 mg/kg i.v. q7dx3, day 18 from inoculum
[9] = 50 mg/kg i.v. q7dx3, day 21 from inoculum
[10] = 50 mg/kg i.v. q7dx3, day 23 from inoculum
[11] = 50 mg/kg i.v. q7dx3, day 25 from inoculum
[12] = 50 mg/kg i.v. q7dx3, day 28 from inoculum
[13] = 50 mg/kg i.v. q7dx3, day 30 from inoculum
[14] = 50 mg/kg i.v. q7dx3, day 32 from inoculum
[15] = 50 mg/kg i.v. q7dx3, day 35 from inoculum
[16] = 50 mg/kg i.v. q7dx3, day 38 from inoculum
[17] = 50 mg/kg i.v. q7dx3, day 42 from inoculum
[18] = 50 mg/kg i.v. q7dx3, day 45 from inoculum
[19] = 50 mg/kg i.v. q7dx3, day 49 from inoculum
[20] = 50 mg/kg i.v. q7dx3, day 53 from inoculum

For CCc1c2c(nc3ccc(OC(=O)N4CCC(N5CCCCC5)CC4)cc13)-c1cc3c(c(=O)n1C2)COC(=O)[C@]3(O)CC [Irinotecan, reference compound], the “Mouse body weight, group Mean” value [1, 3] was 27.4 g, the BWL % [1, 3] was 0.0% and the “Mouse body weight, group Mean” value ([1]; day 10 from tumour inoculum) was 25.8 g. For the same molecule, the BWL % ([1]; day 10 from tumour inoculum) was −6.1%, the “Mouse body weight, group Mean” value ([1]; day 11 from tumour inoculum) was 25.6 g and the BWL % ([1]; day 11 from tumour inoculum) was −6.6%. The “Mouse body weight, group Mean” value ([1]; day 14 from tumour inoculum) was 26.9 g, the BWL % ([1]; day 14 from tumour inoculum) was −1.9% and the “Mouse body weight, group Mean” value ([1]; day 16 from tumour inoculum) was 27.0 g. For the same molecule, the BWL % ([1]; day 16 from tumour inoculum) was −1.7%, the “Mouse body weight, group Mean” value ([1]; day 18 from tumour inoculum) was 26.0 g and the BWL % ([1]; day 18 from tumour inoculum) was −5.3%. The “Mouse body weight, group Mean” value ([1]; day 21 from tumour inoculum) was 26.2 g, the BWL % ([1]; day 21 from tumour inoculum) was −4.3% and the “Mouse body weight, group Mean” value ([1]; day 23 from tumour inoculum) was 26.5 g. For the same molecule, the BWL % ([1]; day 23 from tumour inoculum) was −3.5%, the “Mouse body weight, group Mean” value ([1]; day 25 from tumour inoculum) was 25.4 g and the BWL % ([1]; day 25 from tumour inoculum) was −7.5%. The “Mouse body weight, group Mean” value ([1]; day 28 from tumour inoculum) was 26.4 g, the BWL % ([1]; day 28 from tumour inoculum) was −3.9% and the “Mouse body weight, group Mean” value ([1]; day 30 from tumour inoculum) was 27.1 g. For the same molecule, the BWL % ([1]; day 30 from tumour inoculum) was −1.1%, the “Mouse body weight, group Mean” value ([1]; day 32 from tumour inoculum) was 27.0 g and the BWL % ([1]; day 32 from tumour inoculum) was −1.6%. The “Mouse body weight, group Mean” value ([1]; day 35 from tumour inoculum) was 27.9 g, the BWL % ([1]; day 35 from tumour inoculum) was 1.7% and the “Mouse body weight, group Mean” value ([1]; day 38 from tumour inoculum) was 27.2 g. For the same molecule, the BWL % ([1]; day 38 from tumour inoculum) was −0.7%, the “Mouse body weight, group Mean” value ([1]; day 42 from tumour inoculum) was 28.4 g and the BWL % ([1]; day 42 from tumour inoculum) was 3.5%. The “Mouse body weight, group Mean” value ([1]; day 46 from tumour inoculum) was 27.8 g, the BWL % ([1]; day 46 from tumour inoculum) was 1.5% and the “Mouse body weight, group Mean” value ([1]; day 49 from tumour inoculum) was 28.4 g. The BWL % ([1]; day 49 from tumour inoculum) was 3.6%, the “Mouse body weight, group Mean” value ([1]; day 53 from tumour inoculum) was 28.1 g and the BWL % ([1]; day 53 from tumour inoculum) was 2.3%. For the same molecule, the “TC-71 tumour weight, individual mice” value [2, 4] was 316.8 mg and 124.6 mg and 103.5 mg and 88.1 mg, the “TC-71 tumour weight, mean” value [2, 4] was 106.4 mg and the “TC-71 tumour weight, individual mice” value [2, 5] was 90.6 mg and 45.7 mg and 63.3 mg. The “TC-71 tumour weight, mean” value [2, 5] was 76.4 mg, the “TC-71 tumour weight, individual mice” value [2, 6] was 87.8 mg and 16.6 mg and 9.9 mg and 17.1 mg and the “TC-71 tumour weight, mean” value [2, 6] was 22.6 mg. For the same molecule, the “TC-71 tumour weight, individual mice” value [2, 7] was 99.6 mg and 41.5 mg and 23.8 mg and 72.8 mg, the “TC-71 tumour weight, mean” value [2, 7] was 35.0 mg and the “TC-71 tumour weight, individual mice” value [2, 8] was 44.2 mg and 11.3 mg and 8.8 mg and 28.1 mg. For the same molecule, the “TC-71 tumour weight, mean” value [2, 8] was 14.8 mg, the “optimal T/C” value ([2]; 50 mg/kg i.v. q7dx3, day 21) was 0.4% and the “TC-71 tumour weight, individual mice” value [2, 9] was 9.6 mg and 2.4 mg and 6.1 mg and 7.5 mg. For the same molecule, the “TC-71 tumour weight, mean” value [2, 9] was 6.1 mg, the “TC-71 tumour weight, individual mice” value [2, 10] was 1.7 mg and 5.4 mg and the “TC-71 tumour weight, mean” value [2, 10] was 7.0 mg. For the same molecule, the “TC-71 tumour weight, individual mice” value [2, 11] was 9.9 mg and 3.3 mg, the “TC-71 tumour weight, mean” value [2, 11] was 5.9 mg and the “TC-71 tumour weight, individual mice” value [2, 12] was 6.8 mg and 1.5 mg and 3.3 mg and 2.5 mg. For the same molecule, the “TC-71 tumour weight, mean” value [2, 12] was 3.5 mg, the “TC-71 tumour weight, individual mice” value [2, 13] was 15.4 mg and 2.7 mg and 3.8 mg and 2.6 mg and the “TC-71 tumour weight, mean” value [2, 13] was 6.1 mg. For the same molecule, the “TC-71 tumour weight, individual mice” value [2, 14] was 83.7 mg and 8.2 mg and 12.1 mg and 9.2 mg, the “TC-71 tumour weight, mean” value [2, 14] was 28.3 mg and the “TC-71 tumour weight, individual mice” value [2, 15] was 223.4 mg and 42.7 mg and 36.0 mg and 53.8 mg. The “TC-71 tumour weight, mean” value [2, 15] was 88.9 mg, the “TC-71 tumour weight, individual mice” value [2, 16] was 713.8 mg and 105.6 mg and 74.5 mg and 145.5 mg and the “TC-71 tumour weight, mean” value [2, 16] was 259.8 mg. The “TC-71 tumour weight, individual mice” value [2, 17] was 2687.8 mg and 327.2 mg and 346.6 mg and 199.0 mg, the “TC-71 tumour weight, mean” value [2, 17] was 890.2 mg and the “TC-71 tumour weight, individual mice” value [2, 18] was 2443.2 mg and 627.6 mg and 589.7 mg and 305.0 mg. For the same molecule, the “TC-71 tumour weight, mean” value [2, 18] was 991.4 mg, the “TC-71 tumour weight, individual mice” value [2, 19] was 2887.4 mg and 1184.6 mg and 1244.3 mg and 316.1 mg and the “TC-71 tumour weight, mean” value [2, 19] was 1408.1 mg. The “TC-71 tumour weight, individual mice” value [2, 20] was 3331.8 mg and 1062.6 mg and 2135.1 mg and 308.0 mg, the “TC-71 tumour weight, mean” value [2, 20] was 1709.4 mg and the “mice exhibiting sustained CR up to the conclusion of the experiment” value ([2]; 50 mg/kg q7dx3) was 4 mice. The tumour regression ([2]; 50 mg/kg q7dx3) was “tumour regression in all mice”.

Source: US12257237B2 (priority 2017, dated 2025)
